This note sets out measurements from patent US9751919B2, “Antimicrobial compositions comprising a hyaluronic acid binding peptide and a β-lactam antibiotic” (priority 2012, dated 2017).

Values joined by “and” are separate entries in the source; they are usually repeats but may differ in a detail not shown here. Identical values can stand only once.

One test deals with S. pyogenes. The test is described as follows: Checkerboard assay (FIC index). The format is cell-based, Streptococcus pyogenes. As to conditions: antibiotic combined with PEP35. The procedure:
(§1) The checkerboard assays were carried out as described by Eliopoulos and Moellering (Chapter 9) in Antibiotic in Laboratory Medicine, Lorian Ed. 1996 as well as Bonapace et al. Diagnostic Microbiology and Infectious Diseases 2002; 44:363-366 and Bonapace et al. Diagnostic Microbiology and Infectious Diseases 2000; 38:43-50. In brief, checkerboard assays were performed in 96 well microtitre trays using an 8-by-8 well configuration. […] 96-well custom designed microtitre plates contained 100 ul/well of cation adjusted Mueller-Hinton broth (eg. for Enterobacteriaceae) with or without lysed horse blood (2-5% V/V) [eg. for S. pneumoniae] and were inoculated to achieve a final concentration of approximately 5×10^5 CFU/ml and incubated in ambient air for 24 hours prior to reading. Colony counts were performed periodically to confirm inocula. Quality control was performed every two weeks using a variety of ATCC QC organisms including; S. pneumoniae 49619, S. aureus 29213, E. faecalis 29212, E. coli 25922 and P. aeruginosa 27853. For all antimicrobials as well as PEP35, CLSI criteria was used.
(§2) The fractional inhibitory concentration index (FIC index) was used to interpret synergy, antagonism or additivity/indifference. FIC index=FIC of drug A+FIC of drug B where:
(§3) The FIC of drug A and drug B is calculated as follows, FIC drug A=MIC of drug A in combination/MIC of drug A alone and FIC of drug B=MIC of drug B in combination/MIC of drug B alone. Synergy is defined as FIC index ≦0.5, additivity/indifference FIC >0.5-4 and antagonism FIC index >4.
(§4) Antimicrobials used included PEP35, cefazolin, ceftriaxone, vancomycin, linezolid, tigecycline and daptomycin versus Gram-positive cocci and PEP35, gentamicin, levofloxacin, piperacillin/tazobactam, meropenem and colistin (Polymyxin E) versus Gram-negative bacilli. These agents were obtained as laboratory grade powders from their respective manufacturers. Stock solutions were prepared and dilutions made as described by the Clinical Laboratory Standards Institute (2005 CLSI).
(§5) Organisms included Gram-positive cocci (2 strains of each): Methicillin-susceptible Staphylococcus aureus (MSSA), community-associated (CA) and healthcare-associated (HA) methicillin-resistant Staphylococcus aureus (MRSA), vancomycin-intermediate Staphylococcus aureus (VISA), vancomycin-resistant Staphylococcus aureus (VRSA), methicillin-resistant Staphylococcus epidermidis (MRSE), Streptococcus pyogenes, Streptococcus agalactiae, Streptococcus pneumoniae, Enterococcus faecalis, Enterococcus faecium and vancomycin-resistant enterococcus (VRE). Gram-negative bacilli tested (2 strains of each) included: E. coli, Pseudomonas aeruginosa, Klebsiella pneumoniae, K. oxytoca, Enterobacter cloacae, P. mirabilis and Stenotrophomonas maltophilia. MIC testing, following two subcultures from frozen stock were determined by the CLSI 2005 approved broth microdilution method.

The subject of another test is VISA. The test is described as follows: MIC (CLSI broth dilution), agent alone. Format: cell-based, Staphylococcus aureus. Set-up: unit: µg/mL. The procedure: (§6) VISA (strains 92, 95 and 96), VRSA (strains 105 and 106) and E. coli (strain 69717) isolates were also tested. One MSSA was used as a control. All MICs were assessed using CLSI guidelines. Also assessed was the activity of cefazolin, ceftriazone, meropenem, and a piperacillin/tazobactam combination antibiotic. Minimum inhibitory concentration (MIC) is the lowest concentration of an antimicrobial that will inhibit the visible growth of a microorganism after incubation.
(§7) Antimicrobial Susceptibility Testing: A custom designed panel of antimicrobials was created. The panel included: PEP35, penicillin, piperacillin/tazobactam, cefazolin, ceftriaxone, meropenem, clarithromycin, clindamycin, gentamicin, amikacin, vancomycin, ciprofloxacin, levofloxacin, moxifloxacin, linezolid, trimethoprim/sulfamethoxazole and doxycycline. These agents were obtained as laboratory grade powders from their respective manufacturers. Stock solutions were prepared and dilutions made as described by the Clinical Laboratory Standards Institute (2005 CLSI). Following two subcultures from frozen stock the MICs of the antimicrobial agents for the isolates were determined by the CLSI 2005 approved broth macrodilution method. Briefly, test tubes containing doubling antibiotic dilutions (2 ml per tube) of cation adjusted Mueller-Hinton broth (eg. for Enterobacteriaceae) with or without lysed horse blood (2-5% V/V) [eg. for S. pneumoniae] were inoculated to achieve a final concentration of approximately 5×10^5 CFU/ml and incubated in ambient air for 24 hours prior to reading. Colony counts were performed periodically to confirm inocula. Quality control was performed every two weeks using a variety of ATCC QC organisms including; S. aureus 29213, E. faecalis 29212, E. coli 25922 and P. aeruginosa 27853. For all antimicrobials as well as PEP35, CLSI criteria were used.
(§8) One MSSA was used as a control. All MICs were assessed using CLSI guidelines.

The test system of the next test is E. faecalis. Briefly: Checkerboard assay (FIC index). As to conditions: antibiotic combined with PEP35. The format is cell-based, Enterococcus faecalis. The procedure: as §1, §2, §3, §4, §5
The next test relates to MRSE. The test is described as follows: Checkerboard assay (FIC index). To be noted: antibiotic combined with PEP35. The format is cell-based, Staphylococcus epidermidis. The procedure:
as §1, §2, §3, §4, §5

The next test has as its system VRSA. Briefly: MIC (CLSI broth dilution), agent alone. Format: cell-based, Staphylococcus aureus. Details: unit not given beside the values. The procedure: as §6, §7, §8
(Broth dilution looks for growth in wells or tubes with falling amounts of substance.)

In the case of `Cc1nnc(SCC2=C(C(=O)O)N3C(=O)[C@@H](NC(=O)Cn4cnnn4)[C@H]3SC2)s1` [Cefazolin], the “Avg ΣFIC (range)” value with S. pyogenes (S. pyogenes 77765 (MHB)) is on record as 1.04 (0.75-1.25); with S. pyogenes (S. pyogenes 79531 (MHB)) it was 1.19 (1.03-1.5); with E. faecalis (E. faecalis 70468) it was 0.94 (0.56-1.25); in the test on E. faecalis (E. faecalis 78145) it was 0.93 (0.62-1.06); with MRSE (MRSE 79617), 0.88 (0.53-1.25); in the test on MRSE (MRSE 83100), 0.52 (0.37-0.62). For the same compound, the MIC in the test on VISA (VISA 92) is 128/128; in the test with VISA (VISA 92, in µg/mL) it was 128; with VISA (VISA 95, in µg/mL) it was 128 and 64; with VISA (VISA 95, listed as CEFAZOLIN, in µg/mL) it was 128; with VISA (VISA 96), 32/32; with VISA (VISA 96, in µg/mL) it was 64 and 32. In addition, the MIC is 128/128/128/ in the test on VRSA (VRSA 105); 128 and 256 in the test with VRSA (VRSA 105, in µg/mL); 256/256 in the test with VRSA (VRSA 106); 256 and 128 with VRSA (VRSA 106, in µg/mL).
Consider `CO/N=C(\C(=O)N[C@@H]1C(=O)N2C(C(=O)O)=C(CSc3nc(=O)c(=O)[nH]n3C)CS[C@H]12)c1csc(N)n1` [Ceftriaxone], for which the “Avg ΣFIC (range)” value was 1.19 (0.03-1.5) with S. pyogenes (S. pyogenes 77765 (MHB)); 1.19 (1.03-1.5) in the test on S. pyogenes (S. pyogenes 79531 (MHB)); 1.1 (1-1.25) with E. faecalis (E. faecalis 70468); 0.72 (0.53-1.12) with E. faecalis (E. faecalis 78145); 0.88 (0.53-1.25) with MRSE (MRSE 79617); 1.05 (0.75-1.25) in the test with MRSE (MRSE 83100). Moreover, the MIC was 1024/1024 with VISA (VISA 92); 1024 in the test with VISA (VISA 92, in µg/mL); 512 in the test on VISA (VISA 95, in µg/mL); 1024 and 512 with VISA (VISA 95, listed as CEFTRIAXONE, in µg/mL); 256 and 128/128 and 256/256 in the test on VISA (VISA 96); 2048 and 1024/1024 in the test on VRSA (VRSA 105). The MIC was 1024 and 2048/2048 in the test with VRSA (VRSA 106); 1024/1024 with VRSA (VRSA 106, listed as CEFTRIAXONE).
Take `CCCCCCCCCC(=O)N[C@@H](Cc1c[nH]c2ccccc12)C(=O)N[C@H](CC(N)=O)C(=O)N[C@@H](CC(=O)O)C(=O)N[C@@H]1C(=O)NCC(=O)N[C@@H](CCCN)C(=O)N[C@@H](CC(=O)O)C(=O)N[C@H](C)C(=O)N[C@@H](CC(=O)O)C(=O)NCC(=O)N[C@H](CO)C(=O)N[C@@H]([C@H](C)CC(=O)O)C(=O)N[C@@H](CC(=O)c2ccccc2N)C(=O)O[C@@H]1C` [Daptomycin, daptomycin]: the “Avg ΣFIC (range)” value in the test on S. pyogenes (S. pyogenes 77765 (MHB)) is reported as 1.19 (1.03-1.5); with S. pyogenes (S. pyogenes 79531 (MHB)), 1.19 (1.03-1.5); in the test on E. faecalis (E. faecalis 70468) it was 1.5 (1-2.25); with E. faecalis (E. faecalis 78145) it was 1.39 (1.03-2.25); with MRSE (MRSE 79617), 1.19 (1.03-1.5); with MRSE (MRSE 83100) it was 1.1 (1.0-1.25).
As for `CC(=O)NC[C@H]1CN(c2ccc(N3CCOCC3)c(F)c2)C(=O)O1` [Linezolid, linezolid], the “Avg ΣFIC (range)” value is on record as 1.05 (0.75-1.25) with S. pyogenes (S. pyogenes 77765 (MHB)); 1.19 (1.03-1.5) in the test on S. pyogenes (S. pyogenes 79531 (MHB)); 0.99 (0.62-1.25) with E. faecalis (E. faecalis 70468); 0.88 (0.62-1.06) with E. faecalis (E. faecalis 78145); 1.10 (0.56-1.5) in the test on MRSE (MRSE 79617); 0.73 (0.515-1.12) in the test with MRSE (MRSE 83100).
Take `C[C@@H](O)[C@H]1C(=O)N2C(C(=O)O)=C(S[C@@H]3CN[C@H](C(=O)N(C)C)C3)[C@H](C)[C@H]12` [Meropenem]: the MIC is 16 in the test with VISA (VISA 92, in µg/mL); 16 with VISA (VISA 95, in µg/mL); 8 and 8/8 with VISA (VISA 96); 32 and 16 in the test on VRSA (VRSA 105, in µg/mL); 16 and 16/16 with VRSA (VRSA 106).
For `CN(C)c1cc(NC(=O)CNC(C)(C)C)c(O)c2c1C[C@H]1C[C@H]3[C@H](N(C)C)C(O)=C(C(N)=O)C(=O)[C@@]3(O)C(O)=C1C2=O` [Tigecycline, tigecycline], the “Avg ΣFIC (range)” value in the test on S. pyogenes (S. pyogenes 77765 (MHB)) is reported as 1.1 (1.0-1.25); in the test on S. pyogenes (S. pyogenes 79531 (MHB)), 1.1 (1.0-1.25); in the test with E. faecalis (E. faecalis 70468) it was 0.82 (0.5-1.06); with E. faecalis (E. faecalis 78145) it was 0.9 (0.5-1.12); with MRSE (MRSE 79617), 1.19 (1.03-1.5); in the test on MRSE (MRSE 83100), 1.21 (1.03-1.5).
Consider `CN[C@H](CC(C)C)C(=O)N[C@H]1C(=O)N[C@@H](CC(N)=O)C(=O)N[C@H]2C(=O)N[C@H]3C(=O)N[C@H](C(=O)N[C@H](C(=O)O)c4cc(O)cc(O)c4-c4cc3ccc4O)[C@H](O)c3ccc(c(Cl)c3)Oc3cc2cc(c3O[C@@H]2O[C@H](CO)[C@@H](O)[C@H](O)[C@H]2O[C@H]2C[C@](C)(N)[C@H](O)[C@H](C)O2)Oc2ccc(cc2Cl)[C@H]1O` [Vancomycin], for which the “Avg ΣFIC (range)” value in the test with S. pyogenes (S. pyogenes 77765 (MHB)) is 1.09 (1.0-1.25); in the test with S. pyogenes (S. pyogenes 79531 (MHB)) it was 1.27 (1.015-2.5); with E. faecalis (E. faecalis 70468), 1.1 (1-1.25); in the test on E. faecalis (E. faecalis 78145) it was 1.19 (1.03-15); in the test on MRSE (MRSE 79617) it was 0.99 (0.62-1.25); with MRSE (MRSE 83100), 0.60 (0.31.12) rpt. Moreover, the MIC in the test on VISA (VISA 92) was 4/4; in the test on VISA (VISA 95) it was 2 and 4; with VISA (VISA 96) it was 4/4; with VRSA (VRSA 105), 512/512/512; in the test on VRSA (VRSA 105, listed as VAN, in µg/mL), 512; in the test on VRSA (VRSA 106) it was 512/512/512. Also, the MIC in the test on VRSA (VRSA 106, listed as VAN, in µg/mL) was 512.
Turning to “KKKKKLQLQLNLIKKKVQVSVVVVRRH (Reordered human peptide sequence) [Scrambled PEP35]”, the MIC in the test on VISA (VISA 92, in µg/mL) was 2048; in the test with VISA (VISA 95, in µg/mL), 2048; in the test with VISA (VISA 96, in µg/mL) it was 1024; in the test with VRSA (VRSA 105, in µg/mL) it was 64; in the test with VRSA (VRSA 106, in µg/mL), 128.
Consider “LKQKIKHVVKLKVVVKLRSQLVKRKQN (listed as Mus sp.) [PEP35]”, for which the MIC with VISA (VISA 92) was 1024 and 2048/2048/2048; with VISA (VISA 96) it was 512 and 512/512/512; with VRSA (VRSA 105, in µg/mL), 128 and 64; with VRSA (VRSA 106), 128 and 128/128/128.
As for piperacillin/tazobactam, the MIC was determined as 64 with VISA (VISA 92, in µg/mL); 64 in the test on VISA (VISA 95, in µg/mL); 64 with VISA (VISA 96, in µg/mL); 64 in the test on VRSA (VRSA 105, in µg/mL); 64 in the test on VRSA (VRSA 106, in µg/mL).
